{"source": "patent US6994671B2", "about": "“Apparatus and method for screening, olfactory mucosa stimulating compound found by the screening method, and therapeutic apparatus and electrode section for measurement” (Matsushita Electric Industrial Co., Ltd., priority 2000, dated 2006)", "key": {"rat": {"system": "rat", "assay": "Blood pressure and heart rate of the rat while the compound is sprayed", "format": "in vivo", "source_text": "The test animal fixing device 32 has a means for measuring physiological responses induced in an organism, such as the blood pressure, the heart rate, etc., of the test animal fixed therein. Measurement results obtained by the measuring means are supplied to the processing apparatus 36. Further, measurement results of the blood pressure, the heart rate, and the like, of the rat fixed in the test animal fixing device 32, which are obtained when the air containing the olfactory mucosa stimulating compound is sprayed from the atomizing nozzle 33, are supplied to the processing apparatus 36. The processing apparatus 36 determines the efficacy of the olfactory mucosa stimulating compound sprayed on the rat, based on the analyzed electrical signal pattern in the olfactory bulb and the measurement results of the blood pressure, the heart rate, and the like, of the rat. For example, if a decrease in the blood pressure of the rat is detected as a result of a stimulation of the olfactory mucosa by an olfactory mucosa stimulating compound, it is determined that the olfactory mucosa stimulating compound suppresses brain cells so as to induce a physiological response that lowers the blood pressure. Accordingly, the olfactory mucosa stimulating compound is identified as a compound effective in lowering the blood pressure. In this case, the electrical signal pattern obtained by the measuring electrode portion 10 is stored as data in the processing apparatus 36. After such an implantation operation of the measuring electrode portion 10, the rat was reared for three weeks under an environment which was cleaned with activated carbon so as to remove substances that produce aromas. Then, three weeks after the surgical operation, the rat was fixed in the test animal fixing device 32 of the screening apparatus 1 shown in FIG. 1. The terminal line 38, which extended from the body of the rat, was connected to the signal amplitude stimulating apparatus 34 outside the test animal fixing device 32. […] The response induced in the olfactory bulb of the rat was recorded in the form of an electrical signal from each micro electrode 16a of the measuring electrode portion 10. […] At the same time, the blood pressure and the heart rate of the rat were measured when cineole was sprayed on the rat. […] After the olfactory bulb of the rat had stabilized, cineole was sprayed into the test animal fixing device 32 together with air at an oxygen concentration 5% higher than normal air, and a response of the olfactory bulb of the rat obtained at that time was recorded in the form of an electrical signal from each micro electrode 16a of the measuring electrode portion 10."}, "olfactory mucosa": {"system": "olfactory mucosa", "assay": "Electrical signal in the olfactory bulb on spraying the compound toward the olfactory mucosa, measured with implanted micro electrodes", "format": "in vivo", "details": "rat, sprayed with air for 5 minutes; FIG. 5 (a) vs (b)", "source_text": "A two-week-old rat was used as a test animal. The measuring electrode portion 10 shown in FIG. 4 was implanted into the rat by a surgical operation. In the measuring electrode portion 10, the length of the micro electrode 16a was 100 μm, and the interval between adjacent micro electrodes 16a in each electrode column 17 was 500 μm. Platinum was used as a conductive material for the needle-shaped conductive lead 16. Polyimide was used as the insulative film. […] In order to attach the measuring electrode portion 10 to the rat, Nembutal (barbiturate) was injected into the abdominal cavity of the rat in a quantity equal to […], so as to anesthetize the rat, and the anesthetized rat was fixed in the prone position. […] The response induced in the olfactory bulb of the rat was recorded in the form of an electrical signal from each micro electrode 16a of the measuring electrode portion 10. […] At the same time, the blood pressure and the heart rate of the rat were measured when cineole was sprayed on the rat. […] After the olfactory bulb of the rat had stabilized, cineole was sprayed into the test animal fixing device 32 together with air at an oxygen concentration 5% higher than normal air, and a response of the olfactory bulb of the rat obtained at that time was recorded in the form of an electrical signal from each micro electrode 16a of the measuring electrode portion 10."}, "[1]": {"details": "cineole sprayed with air, FIG. 6"}, "[2]": {"details": "result stated for normal oxygen concentration"}}}
{"smiles": "CC12CCC(CC1)C(C)(C)O2", "note": "[cineole]", "values": [{"measurement": "blood pressure", "setting": "rat; [1]", "result": "increases in the blood pressure"}, {"measurement": "heart rate", "setting": "rat; [1]", "result": "increases"}, {"measurement": "blood pressure, air at normal oxygen concentration versus air at oxygen concentration 5% higher than normal air", "setting": "rat; [2]", "result": "increased more greatly"}, {"measurement": "heart rate, air at normal oxygen concentration versus air at oxygen concentration 5% higher than normal air", "setting": "rat; [2]", "result": "increased more greatly"}, {"measurement": "stimulation of the olfactory mucosa (electrical signals of the olfactory bulb, 16 micro electrodes)", "setting": "olfactory mucosa", "result": "stimulated the olfactory mucosa"}]}
